Results reported in PMC6017171, “Comparative Evaluation of the Antioxidant and Anti-Alzheimer’s Disease Potential of Coumestrol and Puerarol Isolated from Pueraria lobata Using Molecular Modeling Studies” (Molecules : A Journal of Synthetic Chemistry and Natural …, 2018).
“Also recorded” adds a separate entry of the source. Like-named read-outs stand apart in the source and are kept apart here.

Key:
[1] = cited from earlier work
[2] = Western blot analysis for inhibition of ONOO−-mediated nitrotyrosine formation (BSA nitration)
Method: Figure 2 Dose-depended inhibition of ONOO^−-mediated albumin nitration by coumestrol and puerarol. Mixtures of test samples, bovine serum albumin (BSA), and ONOO^− were incubated with shaking at 37 °C for 30 min. The reactant was resolved in 10% polyacrylamide gel via electrophoresis. (a) Coumestrol; and (b) puerarol, were used at the indicated concentrations; (c) Quantification of band intensity was calculated using CS Analyzer 3.00 (ATTO Corp., Tokyo, Japan). ^# p < 0.05 indicates a significant difference from the untreated normal group, * p < 0.05 indicate significant differences from the ONOO^− treated control.
The inhibition of ONOO^−-nitrotyrosine formation was evaluated using the method of Aulak et al.. Samples were added to BSA and mixed with ONOO^− (200 µM). After a 10 min incubation period (room temperature), the sample solution was added to Bio-Rad 2X Laemmli Sample buffer with mercaptoethanol and then boiled for 7 min. The reactant was resolved in 10% polyacrylamide gel via electrophoresis and transferred to PVDF membranes. Pre-stained blue protein markers were used for molecular weight determination. […] Densitometric analysis of the western blot results was determined using a CS analyzer v3.00 (ATTO Corp.).

[3] = target: T1, horse serum BChE (Equus caballus, UniProt P81908); experiment: In vitro ChE enzyme assay (Ellman), BChE; type: biochemical; details: substrate BTCh; mean ± S.E.M of triplicate experiments
T1 construct: horse serum BChE (EC 3.1.1.8); purchased Sigma-Aldrich Co. (St. Louis, MO, USA); host or cells: horse serum
Method: (§1) Electric eel AChE (EC 3.1.1.7), horse serum BChE (EC 3.1.1.8), acetylthiocholine iodide (ATCh), butyrylthiocholine chloride (BTCh), 5,5-dithiobis[2-nitrobenzoic acid] […] All required reagent-grade chemicals used in this study were purchased from commercial sources. Coumestrol and puerarol were isolated from P. lobata as described by Seong et al..
(§2) The inhibitory activity of coumestrol and puerarol against ChEs was measured using the spectrophotometric methods reported by Ellman et al. and Jung et al.. ATCh and BTCh were used as substrates to assay the inhibition of AChE and BChE, respectively. All reactions were performed in triplicate and were recorded in a 96-well microplate format using a microplate spectrophotometer (Molecular Devices, Sunnyvale, CA, USA). Percent inhibition was calculated as (1 − S/E) × 100, where E and S were the enzyme activities without and with the test sample, respectively.

[4] = target: T2, Electric eel AChE (Electrophorus electricus, UniProt O42275); experiment: Enzyme kinetic analysis for AChE inhibition (Lineweaver-Burk and secondary plots); type: biochemical; details: for Inhibition mode, AChE: Lineweaver-Burk plots
T2 construct: purchased Sigma-Aldrich Co. (St. Louis, MO, USA)
Method: (§3) To elucidate the mechanisms of ChE inhibition, kinetic studies of enzyme activity were performed. The slope or intercept in Lineweaver-Burk plots were drawn in SigmaPlot 12.0 as a function of inhibitor concentration, and the kinetic parameters were determined.
(§4) To determine the mechanism of inhibition, AChE, BChE, and BACE1 inhibition was evaluated by monitoring the effects of different concentrations of substrate (0.4 to 0.8 mM for AChE and BChE; 250 to 750 nM for BACE1). Specifically, AChE, BChE, and BACE1 inhibition assays were performed as described above, but the substrate concentration was varied. Inhibition modes of coumestrol and puerarol against ChEs and BACE1 were determined by Lineweaver–Burk plots. Inhibition constants (Ki) were determined by secondary plots.

[5] = ONOO− scavenging activity (DHR 123 oxidation); details: mean ± S.E.M of triplicate experiments; read-out: EC50 Peroxynitrite scavenging
Method: In brief, the rhodamine buffer (pH 7.4) consisted of 50 mM sodium phosphate dibasic, 50 mM sodium phosphate monobasic, 90 mM sodium chloride, 5.0 mM potassium chloride, and 100 μM diethylenetriamine pentaacetate. […] The assay buffer was prepared prior to use and placed on ice. Test samples were dissolved in 10% DMSO (100 μM final concentration). The background and final fluorescent intensities were measured 5 min after treatment with and without the addition of authentic ONOO^− (10 μM), dissolved in 0.3 N sodium hydroxide. […] L-penicillamine was used as a positive control.

[6] = target: T1, horse serum BChE; experiment: Enzyme kinetic analysis for BChE inhibition (Lineweaver-Burk and secondary plots); type: biochemical; details: for Inhibition mode, BChE: Lineweaver-Burk plots; for Ki: secondary plot
Method: as §3, §4

[7] = DPPH radical scavenging activity; details: mean ± S.E.M of triplicate experiments
Method: DPPH radical scavenging activity was evaluated using the method of Blois, with slight modification. Test samples and DPPH were dissolved in methanol. Each test sample (160 µL) at various concentrations was added to 40 µL of DPPH solution (1.5 × 10^−4 M). After gently mixing and standing at room temperature for 30 min, the optical density of the reactant was measured at 520 nm using a VERSAmax microplate spectrophotometer (Molecular Devices, Sunnyvale, CA, USA). […] L-Ascorbic acid was used as a positive control.

[8] = target: T2, Electric eel AChE; experiment: In vitro ChE enzyme assay (Ellman), AChE; type: biochemical
Method: as §1, §2

[9] = target: T3, BACE1 (Homo sapiens, UniProt P56817); experiment: In vitro BACE1 enzyme assay; type: biochemical; details: mean ± S.E.M of triplicate experiments
T3 construct: purchased
Method: The in vitro BACE1 enzyme assay was carried out according to the manufacturer’s recommended protocol with minor modifications. Briefly, a mixture of […] of assay buffer (50 mM sodium acetate, pH 4.5), […] of BACE1 (1.0 U/mL), […] of substrate (750 nM Rh-[…]-Quencher in 50 mM, ammonium bicarbonate) and […] of the test sample was dissolved in 10% DMSO and incubated for 60 min at 25 °C in the dark. Proteolysis of the two fluorophores (Rh-[…]-Quencher) by BACE1 was determined by monitoring formation of the fluorescent donor (Rh-EVNL) at wavelengths of 545 nm for excitation and 585 nm for emission. Fluorescence was measured with a microplate spectrofluorometer (Gemini EM, Sunnyvale, CA, USA).

[10] = target: T3, BACE1; experiment: Enzyme kinetic analysis for BACE1 inhibition (Lineweaver-Burk and secondary plots); type: biochemical; details: for Inhibition mode, BACE1: Lineweaver-Burk plots; for Ki: secondary plot
Method: as §3, §4

[11] = substrate ATCh, mean ± S.E.M of triplicate experiments, read-out: IC50 AChE

T2 sequence (O42275 24-633): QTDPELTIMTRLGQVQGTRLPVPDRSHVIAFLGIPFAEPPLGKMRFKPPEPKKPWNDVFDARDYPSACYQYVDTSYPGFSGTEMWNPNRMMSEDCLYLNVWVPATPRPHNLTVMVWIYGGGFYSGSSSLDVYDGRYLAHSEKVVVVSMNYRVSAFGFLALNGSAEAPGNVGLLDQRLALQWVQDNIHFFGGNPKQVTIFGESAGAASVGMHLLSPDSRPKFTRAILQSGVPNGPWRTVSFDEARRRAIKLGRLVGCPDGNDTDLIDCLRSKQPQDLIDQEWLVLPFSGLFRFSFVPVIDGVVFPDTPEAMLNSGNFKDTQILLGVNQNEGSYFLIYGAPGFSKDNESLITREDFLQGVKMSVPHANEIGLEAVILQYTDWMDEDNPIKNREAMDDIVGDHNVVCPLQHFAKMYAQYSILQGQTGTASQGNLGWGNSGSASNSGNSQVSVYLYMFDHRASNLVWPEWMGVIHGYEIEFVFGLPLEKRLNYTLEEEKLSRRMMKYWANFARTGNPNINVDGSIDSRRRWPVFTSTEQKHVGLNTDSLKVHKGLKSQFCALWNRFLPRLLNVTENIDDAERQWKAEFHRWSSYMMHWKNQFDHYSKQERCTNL
T3 sequence (P56817 46-501): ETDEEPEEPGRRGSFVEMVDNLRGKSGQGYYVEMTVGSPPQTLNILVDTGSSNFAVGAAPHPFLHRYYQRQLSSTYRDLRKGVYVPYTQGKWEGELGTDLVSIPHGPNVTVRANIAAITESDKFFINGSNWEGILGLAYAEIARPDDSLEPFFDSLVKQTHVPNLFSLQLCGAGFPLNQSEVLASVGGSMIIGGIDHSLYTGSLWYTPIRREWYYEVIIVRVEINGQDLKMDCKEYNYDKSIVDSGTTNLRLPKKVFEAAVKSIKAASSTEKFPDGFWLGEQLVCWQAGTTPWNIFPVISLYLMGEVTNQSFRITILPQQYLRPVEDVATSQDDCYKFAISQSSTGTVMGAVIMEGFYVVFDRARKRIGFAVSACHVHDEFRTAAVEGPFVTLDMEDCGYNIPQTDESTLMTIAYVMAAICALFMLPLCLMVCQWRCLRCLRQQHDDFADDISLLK
T1 sequence (P81908 whole entry): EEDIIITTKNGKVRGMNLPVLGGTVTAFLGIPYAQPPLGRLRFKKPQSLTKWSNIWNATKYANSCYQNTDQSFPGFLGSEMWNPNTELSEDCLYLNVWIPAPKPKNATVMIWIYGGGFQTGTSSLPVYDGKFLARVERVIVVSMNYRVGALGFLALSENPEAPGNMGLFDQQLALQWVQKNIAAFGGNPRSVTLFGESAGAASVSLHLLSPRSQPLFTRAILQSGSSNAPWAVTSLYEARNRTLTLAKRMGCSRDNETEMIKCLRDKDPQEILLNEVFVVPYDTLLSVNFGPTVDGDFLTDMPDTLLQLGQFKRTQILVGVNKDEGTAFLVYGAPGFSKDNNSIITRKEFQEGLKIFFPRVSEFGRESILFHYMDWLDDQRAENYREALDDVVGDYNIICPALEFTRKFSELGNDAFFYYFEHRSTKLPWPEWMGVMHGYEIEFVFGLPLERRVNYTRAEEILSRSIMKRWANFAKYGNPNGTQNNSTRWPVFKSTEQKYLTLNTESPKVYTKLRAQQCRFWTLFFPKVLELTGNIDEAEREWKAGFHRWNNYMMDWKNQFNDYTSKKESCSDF

For COc1cc(O)c2c(c1)oc(=O)c1c3cc(O)c(O)cc3oc21 [wedelolactone, reference compound], the IC50 ([1]; read-out: DPPH scavenging activity IC50) is given as 7 µM.
For O=c1oc2cc(O)ccc2c2oc3cc(O)ccc3c12 [Coumestrol], the “Blot intensity of ONOO−-mediated nitrated BSA” value ([2]; 10 µM to 100 µM) is listed as “dose dependent decrease”, the IC50 [3] is listed as 24.6 ± 2.28 µM and the DPPH scavenging ([1]; ref 29 (Booth et al.)) is listed as “inactivity”. For the same compound, the “Inhibition mode, AChE” value [4] was “Competitive”, the “Inhibition mode, AChE” value ([4]; listed as coumestrol) was “competitive” and the Ki ([4]; secondary plot, binding constant of inhibitor with free enzyme, read-out: Ki value Kic, AChE) was 48.9 µM. The EC50 [5] was 1.17 ± 0.11 µM, the “Inhibition mode, BChE” value [6] was “Mixed-type” and the “Inhibition mode, BChE” value ([6]; listed as coumestrol) was “mixed type”. The Ki ([6]; binding constant of inhibitor with enzyme-substrate complex, read-out: Ki value Kiu, BChE) was 41.9 µM, the Ki ([6]; binding constant of inhibitor with free enzyme, read-out: Ki value Kic, BChE) was 12.1 µM and the EC50 [7] was 54 ± 1 µM. It also gave an IC50 [8, 11] of 42.3 ± 1.29 µM and an IC50 [9] of 51 ± 1.86 µM.
O=C1O[C@H]([C@@H](O)CO)C(O)=C1O [L-Ascorbic acid, reference compound] showed an EC50 [7] of 17.4 ± 0.32 µM.
COc1ccc2cc3[n+](cc2c1OC)CCc1cc2c(cc1-3)OCO2 [Berberine, berberine chloride, reference compound] gave an IC50 [8] of 2.22 ± 0.02 µM.
With CC(C)=CCCC(C)=CCc1cc2c(cc1O)oc(=O)c1c3ccc(O)cc3oc21 [Puerarol] the “Blot intensity of ONOO−-mediated nitrated BSA” value ([2]; 50–200 µM) was “dose dependent decrease”, the “Inhibition mode, BACE1” value [10] was “Mixed-type ^e” and the “Inhibition mode, BACE1” value ([10]; listed as puerarol) was “mixed inhibition; also recorded: mixed type”. For the same compound, the Ki ([10]; binding constant of inhibitor with enzyme-substrate complex, read-out: Ki value Kiu, BACE1) was 73.2 µM, the Ki ([10]; binding constant of inhibitor with free enzyme, read-out: Ki value Kic, BACE1) was 33.8 µM and the IC50 [3] was greater than 200 µM. The EC50 [5] was 6.99 ± 0.3 µM, the EC50 [7] was 82.5 ± 1.33 µM and the IC50 [8, 11] was 145 ± 2.46 µM. The IC50 [9] was 28.2 ± 2.48 µM.
